Like-named read-outs stand apart in the source and are kept apart here.
How the values were obtained:
[1] = target: human ATR (Homo sapiens (Human), UniProt Q13535); assay: ATR binding assay (TR-FRET, displacement of fluorescent tracer A or B)
[2] = test system: B16F10 cells; assay: Proliferation assay, crystal violet staining; details: B16-F10, 96 h, read-out: Inhibition of B16F10 cell proliferation
Experimental: Human tumour cells (Table 8) were originally obtained from the American Type Culture Collection (ATCC), the Deutsche Sammlung von Mikroorganismen and Zellkulturen (DSMZ, German Collection of Microorganisms and Cell Cultures), or Epo GmbH Berlin. […] After 24 hours, the cells of one plate (zero plate) were dyed with crystal violet (see below), whereas the medium of the other plates was replaced with fresh culture medium (200 μl) to which the test substances were added in various concentrations (0 μM, and also in the range of 0.001-10 μM; the final concentration of the solvent dimethyl sulphoxide was 0.1 or 0.5%). The cells were incubated for 4 days in the presence of the test substances. […] After washing the fixed cells three times with water, the plates were dried at room temperature. The cells were stained by adding 100 μl/measurement point of a 0.1% strength crystal violet solution (pH adjusted to pH 3 by adding acetic acid). After washing the cells three times with water, the plates were dried at room temperature. The dye was dissolved by adding 100 μl/measurement point of a 10% strength acetic acid solution. […] The percentage change in cell growth was calculated by normalizing the measured values to the absorbance values of the zero plate (=0%) and the absorbance of the untreated (0 W) cells (=100%). The IC50 values were determined by means of a four parameter fit.

[3] = test system: HeLa cells; assay: Proliferation assay, crystal violet staining; details: Homo sapiens, 96 h
Experimental: (§1) After 24 hours, the cells of one plate (zero plate) were dyed with crystal violet (see below), whereas the medium of the other plates was replaced with fresh culture medium (200 μl) to which the test substances were added in various concentrations (0 μM, and also in the range of 0.001-10 μM; the final concentration of the solvent dimethyl sulphoxide was 0.1 or 0.5%). The cells were incubated for 4 days in the presence of the test substances. […] After washing the fixed cells three times with water, the plates were dried at room temperature. The cells were stained by adding 100 μl/measurement point of a 0.1% strength crystal violet solution (pH adjusted to pH 3 by adding acetic acid). After washing the cells three times with water, the plates were dried at room temperature. The dye was dissolved by adding 100 μl/measurement point of a 10% strength acetic acid solution. […] The percentage change in cell growth was calculated by normalizing the measured values to the absorbance values of the zero plate (=0%) and the absorbance of the untreated (0 W) cells (=100%). The IC50 values were determined by means of a four parameter fit.

[4] = test system: Caco-2 cells; assay: Proliferation assay, crystal violet staining; assay type: cell-based; details: Homo sapiens, Caco-2, 96 h, 4 days incubation, read-out: Inhibition of Caco-2 cell proliferation
Experimental: as §1

[5] = test system: DU145 cells; assay: Proliferation assay, crystal violet staining; details: Homo sapiens, DU-145, 96 h, read-out: Inhibition of DU145 cell proliferation, DU145 cells, 4 days incubation
Experimental: as §1

[6] = test system: HeLa-MaTu-ADR cells; assay: Proliferation assay, crystal violet staining; assay type: cell-based; details: Homo sapiens, 96 h, 4 days incubation, read-out: Inhibition of HeLa-MaTu-ADR cell proliferation
Experimental: as §1

[7] = test system: NCI-H460 cells; assay: Proliferation assay, crystal violet staining; details: Homo sapiens, NCI-H460, 96 h, read-out: Inhibition of NCI-H460 cell proliferation, NCI-H460 cells, 4 days incubation
Experimental: as §1

human ATR, sequence (Q13535 other isoform, or with tags, fused parts or gaps): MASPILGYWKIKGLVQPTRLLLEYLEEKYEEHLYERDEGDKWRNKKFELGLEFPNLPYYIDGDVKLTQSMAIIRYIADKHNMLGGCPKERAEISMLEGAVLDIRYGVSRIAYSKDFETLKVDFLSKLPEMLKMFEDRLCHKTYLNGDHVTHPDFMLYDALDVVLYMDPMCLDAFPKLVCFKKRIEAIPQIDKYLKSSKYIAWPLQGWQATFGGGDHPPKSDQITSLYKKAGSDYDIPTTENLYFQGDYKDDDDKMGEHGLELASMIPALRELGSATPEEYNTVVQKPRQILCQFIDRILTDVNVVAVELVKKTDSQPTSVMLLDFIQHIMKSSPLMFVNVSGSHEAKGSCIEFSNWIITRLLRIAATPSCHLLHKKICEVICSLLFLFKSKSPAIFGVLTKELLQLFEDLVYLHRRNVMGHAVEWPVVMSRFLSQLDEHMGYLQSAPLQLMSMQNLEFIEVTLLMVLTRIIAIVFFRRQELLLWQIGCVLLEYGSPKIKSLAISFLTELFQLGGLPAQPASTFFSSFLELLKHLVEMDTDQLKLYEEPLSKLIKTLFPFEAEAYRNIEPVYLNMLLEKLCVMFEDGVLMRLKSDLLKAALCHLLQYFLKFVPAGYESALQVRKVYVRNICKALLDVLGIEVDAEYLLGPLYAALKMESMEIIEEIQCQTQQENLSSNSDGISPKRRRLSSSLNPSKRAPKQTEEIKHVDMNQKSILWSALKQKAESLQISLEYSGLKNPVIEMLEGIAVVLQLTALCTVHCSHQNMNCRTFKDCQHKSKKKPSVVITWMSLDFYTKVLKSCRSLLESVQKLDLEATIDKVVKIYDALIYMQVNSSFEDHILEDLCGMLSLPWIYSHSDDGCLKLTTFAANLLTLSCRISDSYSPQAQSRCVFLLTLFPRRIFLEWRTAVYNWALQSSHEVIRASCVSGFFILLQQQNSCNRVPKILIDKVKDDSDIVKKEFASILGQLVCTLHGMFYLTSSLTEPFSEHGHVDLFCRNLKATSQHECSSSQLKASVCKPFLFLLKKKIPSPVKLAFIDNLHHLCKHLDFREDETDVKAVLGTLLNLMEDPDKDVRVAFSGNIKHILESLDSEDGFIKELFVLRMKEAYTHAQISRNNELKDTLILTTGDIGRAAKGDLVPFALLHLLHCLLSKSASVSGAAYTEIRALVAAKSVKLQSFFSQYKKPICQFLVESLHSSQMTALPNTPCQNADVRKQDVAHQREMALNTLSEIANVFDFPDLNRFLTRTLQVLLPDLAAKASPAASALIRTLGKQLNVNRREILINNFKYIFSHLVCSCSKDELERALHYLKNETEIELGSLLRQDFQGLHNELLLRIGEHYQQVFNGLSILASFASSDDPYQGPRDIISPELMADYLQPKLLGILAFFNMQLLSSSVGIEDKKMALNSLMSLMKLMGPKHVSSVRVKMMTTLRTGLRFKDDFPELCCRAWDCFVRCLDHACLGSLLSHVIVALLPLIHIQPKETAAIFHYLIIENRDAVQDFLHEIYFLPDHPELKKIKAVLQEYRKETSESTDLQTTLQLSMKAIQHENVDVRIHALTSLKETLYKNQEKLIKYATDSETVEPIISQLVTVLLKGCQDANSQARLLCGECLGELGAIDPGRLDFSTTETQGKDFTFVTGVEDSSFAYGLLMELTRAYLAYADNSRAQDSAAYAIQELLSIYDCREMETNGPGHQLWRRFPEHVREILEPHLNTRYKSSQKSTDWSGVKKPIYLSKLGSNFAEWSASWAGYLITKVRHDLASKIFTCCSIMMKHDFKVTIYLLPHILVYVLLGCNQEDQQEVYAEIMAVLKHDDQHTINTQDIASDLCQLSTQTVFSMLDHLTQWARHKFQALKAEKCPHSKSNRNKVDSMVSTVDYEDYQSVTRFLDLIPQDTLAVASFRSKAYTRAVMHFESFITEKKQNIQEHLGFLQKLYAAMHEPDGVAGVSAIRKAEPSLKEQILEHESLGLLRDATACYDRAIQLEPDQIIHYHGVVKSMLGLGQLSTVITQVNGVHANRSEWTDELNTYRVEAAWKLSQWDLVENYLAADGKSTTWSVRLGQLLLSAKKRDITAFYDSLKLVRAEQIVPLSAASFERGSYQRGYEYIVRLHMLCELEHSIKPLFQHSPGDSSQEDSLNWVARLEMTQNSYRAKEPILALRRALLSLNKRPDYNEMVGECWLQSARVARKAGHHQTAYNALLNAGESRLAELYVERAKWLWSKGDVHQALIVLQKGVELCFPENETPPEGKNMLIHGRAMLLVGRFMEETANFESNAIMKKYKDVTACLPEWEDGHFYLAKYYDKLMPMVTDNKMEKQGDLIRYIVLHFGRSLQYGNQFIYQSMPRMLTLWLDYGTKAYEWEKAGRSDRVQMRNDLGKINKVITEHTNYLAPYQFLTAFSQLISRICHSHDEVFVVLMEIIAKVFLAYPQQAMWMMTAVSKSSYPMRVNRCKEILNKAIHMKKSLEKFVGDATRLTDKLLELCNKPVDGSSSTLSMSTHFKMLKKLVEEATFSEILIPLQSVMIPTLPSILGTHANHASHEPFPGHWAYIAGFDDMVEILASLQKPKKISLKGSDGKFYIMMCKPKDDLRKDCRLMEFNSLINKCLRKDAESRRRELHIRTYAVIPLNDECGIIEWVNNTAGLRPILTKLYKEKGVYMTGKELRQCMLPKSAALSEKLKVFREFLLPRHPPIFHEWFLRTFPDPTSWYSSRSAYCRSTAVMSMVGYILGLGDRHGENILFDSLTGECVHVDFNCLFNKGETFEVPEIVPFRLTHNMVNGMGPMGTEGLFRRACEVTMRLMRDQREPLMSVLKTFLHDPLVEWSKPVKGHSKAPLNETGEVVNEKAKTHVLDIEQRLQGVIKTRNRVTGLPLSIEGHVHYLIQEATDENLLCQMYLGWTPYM
human ATR, sequence (Q8WXE1 other isoform, or with tags, fused parts or gaps partner): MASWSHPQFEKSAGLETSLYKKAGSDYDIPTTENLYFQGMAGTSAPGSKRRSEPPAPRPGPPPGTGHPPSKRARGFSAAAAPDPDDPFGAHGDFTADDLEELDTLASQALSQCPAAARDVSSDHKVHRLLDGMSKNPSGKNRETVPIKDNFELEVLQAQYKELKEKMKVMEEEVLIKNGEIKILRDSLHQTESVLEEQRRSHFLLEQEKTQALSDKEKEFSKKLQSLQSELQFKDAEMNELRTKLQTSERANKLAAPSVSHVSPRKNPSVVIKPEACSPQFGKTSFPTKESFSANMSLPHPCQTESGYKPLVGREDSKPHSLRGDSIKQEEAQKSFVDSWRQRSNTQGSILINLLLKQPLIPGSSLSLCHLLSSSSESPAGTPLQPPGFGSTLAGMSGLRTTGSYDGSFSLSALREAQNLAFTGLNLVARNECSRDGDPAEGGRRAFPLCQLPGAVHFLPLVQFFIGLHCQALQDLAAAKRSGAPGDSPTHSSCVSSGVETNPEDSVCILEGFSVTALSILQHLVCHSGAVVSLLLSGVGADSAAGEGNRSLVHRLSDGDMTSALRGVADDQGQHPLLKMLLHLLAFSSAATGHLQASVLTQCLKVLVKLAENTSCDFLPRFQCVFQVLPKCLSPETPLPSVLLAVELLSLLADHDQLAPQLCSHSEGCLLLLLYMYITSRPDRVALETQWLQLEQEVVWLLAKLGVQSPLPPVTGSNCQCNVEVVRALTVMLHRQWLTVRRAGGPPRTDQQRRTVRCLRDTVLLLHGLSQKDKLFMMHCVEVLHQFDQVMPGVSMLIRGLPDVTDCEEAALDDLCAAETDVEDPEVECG

| IC50 ([3]; read-out: Inhibition of HeLa cell proliferation, HeLa cells, 4 days incubation) [nM] | IC50 [7] [nM] | SMILES | IC50 [1] [nM] | IC50 [2] [nM] | IC50 ([3]; read-out: Inhibition of HeLa cell proliferation) [nM] | IC50 [4] [nM] | IC50 [5] [nM] | IC50 [6] [nM] |
| --- | --- | --- | --- | --- | --- | --- | --- | --- |
| – | – | CC1(C)C[C@@H]2C[C@@](C)(CN2c2cc(N3CCOCC3)nc3c(-c4ccn[nH]4)nccc23)C1 (stereo in doubt) [Example 421, 2-(morpholin-4-yl)-8-(1H-pyrazol-5-yl)-4-[1,3,3-trimethyl-6-azabicyclo[3.2.1]oct-6-yl]-1,7-naphthyridine] | 1790 | – | – | – | – | – |
| – | – | CCOP(C)(=O)c1cc(N2CCOC[C@H]2C)nc2c(-c3ccn[nH]3)nccc12 (stereo partly drawn) [Example 125, ethyl methyl{2-[(3R)-3-methylmorpholin-4-yl]-8-(1H-pyrazol-5-yl)-1,7-naphthyridin-4-yl}phosphinate] | – | > 3000 | 705 | > 3000 | 712 | > 3000 |
| – | – | CC(C)S(=O)(=Nc1cc(N2CCOC[C@H]2C)nc2c(-c3ccn[nH]3)nccc12)c1ccc(Br)cc1 (stereo partly drawn) [Example 275] | 304 | – | – | – | – | – |
| 613 | 399 | Cn1nccc1-c1cc(N2CCOCC2)nc2c(-c3ccn[nH]3)nccc12 [Example 348, 4-(1-methyl-1H-pyrazol-5-yl)-2-(morpholin-4-yl)-8-(1H-pyrazol-5-yl)-1,7-naphthyridine] | – | – | – | 822 | 518 | 940 |

— patent US10772893B2, “2-(morpholin-4-yl)-1,7-naphthyridines” (BAYER PHARMA AKTIENGESELLSCHAFT, priority 2014, dated 2020)
